{"source": "ChEMBL document CHEMBL4020736", "about": "“Synthesis and biological evaluation of novel selective androgen receptor modulators (SARMs) Part III: Discovery of 4-(5-oxopyrrolidine-1-yl)benzonitrile derivative 2f as a clinical candidate” (Bioorg Med Chem, 2017)", "key": {"[1]": {"experiment": "AUC (0 to 24 hrs) in Beagle dog at 0.1 mg/kg, iv by LC-MS/MS analysis", "format": "ADME, organism-based, Canis lupus familiaris", "set-up": "time < 24 hr, dose 0.1 mg/kg, route intravenous", "details": "in vivo"}, "[2]": {"experiment": "Plasma concentration in Crl:CD(SD) rat at 0.1 mg/kg, iv after 5 mins by LC-MS/MS analysis", "format": "ADME, organism-based"}, "[3]": {"experiment": "Clearance in monkey liver microsomes at 1 uM after 60 mins in presence of NADPH by UPLC analysis", "format": "ADME, Macaca mulatta, microsome", "details": "rhesus monkey, read-out: CLH"}, "[4]": {"experiment": "Tmax in Beagle dog at 1 mg/kg, po by LC-MS/MS analysis", "format": "ADME, organism-based, Canis lupus familiaris", "details": "in vivo"}, "[5]": {"tested_on": "Canis familiaris", "experiment": "Toxicity in Beagle dog administered via oral gavage", "set-up": "species or system Canis lupus familiaris", "details": "in vivo"}, "[6]": {"experiment": "Clearance in rat liver microsomes at 1 uM after 15 mins in presence of NADPH by UPLC analysis", "format": "ADME, microsome", "details": "read-out: CLH"}, "[7]": {"experiment": "Cmax in Beagle dog at 1 mg/kg, po by LC-MS/MS analysis", "format": "ADME, organism-based, Canis lupus familiaris", "set-up": "dose 1 mg/kg, route oral", "details": "in vivo"}, "[8]": {"molecular_target": "T1, Glucocorticoid receptor (Homo sapiens, UniProt P04150)", "T1 sequence (P04150 whole entry)": "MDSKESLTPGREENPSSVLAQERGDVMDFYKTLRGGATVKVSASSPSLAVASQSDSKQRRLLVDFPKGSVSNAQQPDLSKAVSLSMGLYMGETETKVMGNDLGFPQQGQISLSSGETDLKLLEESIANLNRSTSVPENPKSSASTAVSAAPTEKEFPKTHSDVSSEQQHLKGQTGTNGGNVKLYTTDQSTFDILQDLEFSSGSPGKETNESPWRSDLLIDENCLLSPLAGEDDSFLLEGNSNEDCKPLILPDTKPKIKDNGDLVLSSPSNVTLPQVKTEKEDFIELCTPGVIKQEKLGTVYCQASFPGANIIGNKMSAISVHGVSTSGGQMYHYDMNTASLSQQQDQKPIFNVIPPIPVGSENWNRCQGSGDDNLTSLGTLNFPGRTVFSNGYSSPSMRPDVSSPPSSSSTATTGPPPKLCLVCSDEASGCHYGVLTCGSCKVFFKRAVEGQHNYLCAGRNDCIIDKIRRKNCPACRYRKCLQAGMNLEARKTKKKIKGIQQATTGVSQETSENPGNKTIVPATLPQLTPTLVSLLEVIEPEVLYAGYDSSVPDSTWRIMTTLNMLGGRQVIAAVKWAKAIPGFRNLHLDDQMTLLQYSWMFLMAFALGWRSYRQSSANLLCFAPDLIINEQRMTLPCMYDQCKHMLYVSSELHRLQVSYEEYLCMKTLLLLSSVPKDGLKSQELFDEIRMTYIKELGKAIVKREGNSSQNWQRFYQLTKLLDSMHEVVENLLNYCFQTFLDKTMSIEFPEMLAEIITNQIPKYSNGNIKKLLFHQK", "experiment": "Binding affinity to GR (unknown origin)"}, "[9]": {"experiment": "Plasma concentration in cynomolgus monkey at 0.1 mg/kg, iv after 5 mins by LC-MS/MS analysis", "format": "ADME, organism-based, Macaca fascicularis"}, "[10]": {"tested_on": "Rattus norvegicus", "experiment": "Induction of sexual behavior in castrated CD(SD)IGS rat assessed as pseudopregnancy rate at 1.5 mg/kg, po qd for 21 days measured on day 18 to 21 relative to control", "format": "functional"}, "[11]": {"experiment": "Plasma concentration in Beagle dog at 0.1 mg/kg, iv after 5 mins by LC-MS/MS analysis", "format": "ADME, organism-based, Canis lupus familiaris"}}}
{"compound": "CC[C@H]1[C@@H](O)CC(=O)N1c1ccc(C#N)c(C(F)(F)F)c1", "values": [{"measurement": "AUC(0-t) at 24 h", "setting": "[1]", "result": 150, "unit": "ng·h/mL"}, {"measurement": "concentration at 5 min", "setting": "[2]", "result": 70.8, "unit": "ng/mL"}, {"measurement": "microsomal CLint at 1 µM", "setting": "[3]", "result": 5, "unit": "µL/min/mg"}, {"measurement": "Tmax", "setting": "[4]", "result": 45, "unit": "min"}, {"measurement": "Activity", "setting": "[5]", "result": "Non-Toxic"}, {"measurement": "microsomal CLint at 1 µM", "setting": "[6]", "result": "20 to 21", "unit": "µL/min/mg"}, {"measurement": "Cmax", "setting": "[7]", "result": 265, "unit": "ng/mL"}, {"measurement": "IC50", "setting": "[8]", "result": "> 10", "unit": "µM"}, {"measurement": "concentration at 5 min", "setting": "[9]", "result": 72.9, "unit": "ng/mL"}, {"measurement": "Activity", "setting": "[10]", "result": 100, "unit": "%"}, {"measurement": "concentration at 5 min", "setting": "[11]", "result": 106, "unit": "ng/mL"}]}
